Assay results taken from ChEMBL document CHEMBL5038628, “Discovery of spiro amide SHR902275: A potent, selective, and efficacious RAF inhibitor targeting RAS mutant cancers” (Eur J Med Chem, 2022).
pIC50: −log10 of the molar value. ≈ marks a conversion by molar mass, not a printed value. Values belong to the compound of their own block, whether it stands above or below them. Calls of active or inactive are those of the source. The rule behind the calls is not given here.

Tests used:
[1] = target: RAF proto-oncogene serine/threonine-protein kinase (Homo sapiens, UniProt P04049); assay: Inhibition of human recombinant cRAF measured after 60 mins by TR-FRET assay
Sequence of RAF proto-oncogene serine/threonine-protein kinase (P04049 whole entry): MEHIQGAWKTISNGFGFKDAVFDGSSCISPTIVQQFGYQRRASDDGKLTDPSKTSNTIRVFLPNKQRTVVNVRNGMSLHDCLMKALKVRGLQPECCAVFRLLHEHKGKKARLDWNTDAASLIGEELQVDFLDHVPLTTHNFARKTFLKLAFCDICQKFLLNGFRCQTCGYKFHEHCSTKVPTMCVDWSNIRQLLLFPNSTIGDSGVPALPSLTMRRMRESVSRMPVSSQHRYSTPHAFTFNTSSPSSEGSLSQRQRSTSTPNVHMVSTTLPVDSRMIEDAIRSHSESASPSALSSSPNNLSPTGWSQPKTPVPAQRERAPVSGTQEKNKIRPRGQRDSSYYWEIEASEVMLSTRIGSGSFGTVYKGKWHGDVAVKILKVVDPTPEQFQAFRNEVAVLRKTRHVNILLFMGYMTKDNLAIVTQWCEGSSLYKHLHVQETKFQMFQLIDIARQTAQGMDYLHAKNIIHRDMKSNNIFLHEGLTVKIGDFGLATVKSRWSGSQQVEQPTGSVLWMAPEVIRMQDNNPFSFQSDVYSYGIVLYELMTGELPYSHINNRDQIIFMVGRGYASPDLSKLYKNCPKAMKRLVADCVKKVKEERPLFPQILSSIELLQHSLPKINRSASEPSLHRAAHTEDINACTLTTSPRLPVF

[2] = test system: NCI-H358; assay: Cytotoxicity against human NCI-H358 cells assessed as inhibition of growth measured after 72 hrs by CellTiter-Glo luciferase assay; assay type: functional
[3] = Solubility of the compound at pH 7.4; details: buffer
[4] = Cmax in Sprague-Dawley rat plasma at 2 mg/kg, IG by LC-MS/MS analysis; assay type: ADME, organism-based; design: route […], dose 2 mg/kg; details: po
[5] = AUC (0 to t) in Sprague-Dawley rat plasma at 2 mg/kg, IG by LC-MS/MS analysis; assay type: ADME, organism-based; design: dose 2 mg/kg; details: po
[6] = Oral bioavailability in Sprague-Dawley rat by LC-MS/MS analysis; assay type: ADME, organism-based; details: in vivo
[7] = target: Serine/threonine-protein kinase B-raf (Homo sapiens, UniProt P15056); assay: Inhibition of human recombinant wild type BRAF measured after 60 mins by TR-FRET assay
Sequence of Serine/threonine-protein kinase B-raf (Homo sapiens, UniProt P15056) (P15056 whole entry): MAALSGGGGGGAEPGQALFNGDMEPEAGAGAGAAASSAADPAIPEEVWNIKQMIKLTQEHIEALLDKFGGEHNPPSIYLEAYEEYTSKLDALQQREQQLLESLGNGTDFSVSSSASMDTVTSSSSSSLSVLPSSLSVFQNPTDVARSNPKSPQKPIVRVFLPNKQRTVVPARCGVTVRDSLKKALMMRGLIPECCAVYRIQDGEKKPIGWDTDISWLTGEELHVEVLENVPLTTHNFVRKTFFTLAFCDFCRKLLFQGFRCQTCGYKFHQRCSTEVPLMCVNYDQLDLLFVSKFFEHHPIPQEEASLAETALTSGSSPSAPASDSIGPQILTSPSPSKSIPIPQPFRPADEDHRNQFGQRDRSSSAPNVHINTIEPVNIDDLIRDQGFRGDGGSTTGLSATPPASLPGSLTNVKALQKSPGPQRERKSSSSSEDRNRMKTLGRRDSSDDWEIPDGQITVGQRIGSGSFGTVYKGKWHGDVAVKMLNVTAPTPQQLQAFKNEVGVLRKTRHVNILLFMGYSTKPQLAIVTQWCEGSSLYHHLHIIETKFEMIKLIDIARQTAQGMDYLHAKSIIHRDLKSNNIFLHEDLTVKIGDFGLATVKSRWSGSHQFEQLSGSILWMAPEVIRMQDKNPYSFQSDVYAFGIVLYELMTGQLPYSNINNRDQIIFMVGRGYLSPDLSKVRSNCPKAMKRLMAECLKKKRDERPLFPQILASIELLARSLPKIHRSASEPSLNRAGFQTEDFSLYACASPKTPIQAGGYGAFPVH

[8] = target: Serine/threonine-protein kinase B-raf (Homo sapiens, UniProt P15056, V600E); assay: Inhibition of human recombinant BRAF V600E mutant measured after 60 mins by TR-FRET assay
Sequence of Serine/threonine-protein kinase B-raf (Homo sapiens, UniProt P15056, V600E) (P15056 2-766 V600E limits assumed): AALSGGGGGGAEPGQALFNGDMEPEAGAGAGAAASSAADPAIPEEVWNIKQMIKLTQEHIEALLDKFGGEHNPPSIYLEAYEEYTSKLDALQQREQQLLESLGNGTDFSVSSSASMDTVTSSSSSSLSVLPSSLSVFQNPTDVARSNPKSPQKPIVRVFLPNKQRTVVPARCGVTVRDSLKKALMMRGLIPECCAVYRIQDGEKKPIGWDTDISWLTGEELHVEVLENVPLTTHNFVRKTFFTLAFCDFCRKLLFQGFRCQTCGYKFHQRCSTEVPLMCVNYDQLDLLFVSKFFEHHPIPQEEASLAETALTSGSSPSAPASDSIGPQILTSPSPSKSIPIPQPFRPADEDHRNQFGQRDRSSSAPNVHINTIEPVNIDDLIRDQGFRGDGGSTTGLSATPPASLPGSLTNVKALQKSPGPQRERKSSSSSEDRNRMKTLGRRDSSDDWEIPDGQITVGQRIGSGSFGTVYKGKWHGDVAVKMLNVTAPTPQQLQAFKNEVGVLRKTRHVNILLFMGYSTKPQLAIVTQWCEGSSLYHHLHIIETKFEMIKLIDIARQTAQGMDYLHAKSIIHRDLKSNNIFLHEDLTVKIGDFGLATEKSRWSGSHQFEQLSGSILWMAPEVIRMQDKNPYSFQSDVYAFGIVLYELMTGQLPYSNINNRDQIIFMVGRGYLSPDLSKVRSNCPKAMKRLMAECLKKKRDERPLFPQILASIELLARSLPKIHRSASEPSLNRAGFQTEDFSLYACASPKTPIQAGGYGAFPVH

[9] = test system: A-375; assay: Cytotoxicity against human A-375 cells assessed as inhibition of growth measured after 72 hrs by CellTiter-Glo luciferase assay; assay type: functional
[10] = test system: Calu-6; assay: Cytotoxicity against human Calu-6 cells assessed as inhibition of growth measured after 72 hrs by CellTiter-Glo luciferase assay; assay type: functional
[11] = test system: SK-MEL-2; assay: Cytotoxicity against human SK-MEL-2 cells assessed as inhibition of growth measured after 72 hrs by CellTiter-Glo luciferase assay; assay type: functional
[12] = Metabolic stability in human liver microsomes assessed as half life; assay type: ADME, Microsome
[13] = Metabolic stability in mouse liver microsomes assessed as half life; assay type: ADME, Microsome
[14] = Metabolic stability in rat liver microsomes assessed as half life; assay type: ADME, Microsome
[15] = Fraction unbound in human plasma; assay type: ADME, cell-free
[16] = Fraction unbound in mouse plasma; assay type: ADME, cell-free
[17] = Fraction unbound in rat plasma; assay type: ADME, cell-free
[18] = Apparent permeability across apical to basolateral membrane in human Caco-2 cells
[19] = Apparent permeability across basolateral to apical membrane in human Caco-2 cells
[20] = target: P-gp (ABCB1) (Homo sapiens, UniProt P08183); assay: Substrate activity at P-gp in human Caco-2 cells assessed as efflux ratio of permeability
[21] = target: T1, Cytochrome P450 1A2 (Homo sapiens, UniProt P05177); assay: Inhibition of CYP1A2 (unknown origin)
T1 sequence (P05177 whole entry): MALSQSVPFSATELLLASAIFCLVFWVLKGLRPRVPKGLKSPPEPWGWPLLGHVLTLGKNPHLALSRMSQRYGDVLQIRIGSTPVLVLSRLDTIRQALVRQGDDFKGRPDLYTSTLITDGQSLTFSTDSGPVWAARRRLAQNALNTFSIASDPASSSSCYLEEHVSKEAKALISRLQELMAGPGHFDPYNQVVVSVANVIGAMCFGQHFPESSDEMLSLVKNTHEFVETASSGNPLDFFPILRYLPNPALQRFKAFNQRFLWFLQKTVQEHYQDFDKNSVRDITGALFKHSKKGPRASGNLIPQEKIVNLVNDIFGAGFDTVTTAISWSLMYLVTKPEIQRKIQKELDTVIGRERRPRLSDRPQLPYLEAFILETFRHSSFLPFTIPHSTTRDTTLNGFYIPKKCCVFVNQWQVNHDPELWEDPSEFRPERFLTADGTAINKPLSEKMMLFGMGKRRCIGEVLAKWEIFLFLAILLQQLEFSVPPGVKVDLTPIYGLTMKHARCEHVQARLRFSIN

[22] = target: Cytochrome P450 2C9 (Homo sapiens, UniProt P11712); assay: Inhibition of CYP2C9 (unknown origin)
[23] = target: Cytochrome P450 2C19 (Homo sapiens, UniProt P33261); assay: Inhibition of CYP2C19 (unknown origin)
Sequence of Cytochrome P450 2C19 (P33261 whole entry): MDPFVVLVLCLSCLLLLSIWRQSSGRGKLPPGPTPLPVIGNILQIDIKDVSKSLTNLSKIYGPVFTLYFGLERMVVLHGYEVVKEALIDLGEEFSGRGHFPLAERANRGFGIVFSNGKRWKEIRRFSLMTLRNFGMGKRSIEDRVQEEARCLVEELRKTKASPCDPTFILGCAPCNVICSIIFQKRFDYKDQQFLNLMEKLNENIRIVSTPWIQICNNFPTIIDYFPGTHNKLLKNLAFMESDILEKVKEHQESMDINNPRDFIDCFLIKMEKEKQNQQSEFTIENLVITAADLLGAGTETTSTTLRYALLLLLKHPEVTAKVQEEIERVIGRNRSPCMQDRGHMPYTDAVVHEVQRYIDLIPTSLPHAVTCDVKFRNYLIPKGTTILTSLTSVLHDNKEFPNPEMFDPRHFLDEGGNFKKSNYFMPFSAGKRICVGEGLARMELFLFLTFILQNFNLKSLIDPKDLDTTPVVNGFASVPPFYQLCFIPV

[24] = target: Cytochrome P450 2D6 (Homo sapiens, UniProt P10635); assay: Inhibition of CYP2D6 (unknown origin)
Sequence of Cytochrome P450 2D6 (P10635 whole entry): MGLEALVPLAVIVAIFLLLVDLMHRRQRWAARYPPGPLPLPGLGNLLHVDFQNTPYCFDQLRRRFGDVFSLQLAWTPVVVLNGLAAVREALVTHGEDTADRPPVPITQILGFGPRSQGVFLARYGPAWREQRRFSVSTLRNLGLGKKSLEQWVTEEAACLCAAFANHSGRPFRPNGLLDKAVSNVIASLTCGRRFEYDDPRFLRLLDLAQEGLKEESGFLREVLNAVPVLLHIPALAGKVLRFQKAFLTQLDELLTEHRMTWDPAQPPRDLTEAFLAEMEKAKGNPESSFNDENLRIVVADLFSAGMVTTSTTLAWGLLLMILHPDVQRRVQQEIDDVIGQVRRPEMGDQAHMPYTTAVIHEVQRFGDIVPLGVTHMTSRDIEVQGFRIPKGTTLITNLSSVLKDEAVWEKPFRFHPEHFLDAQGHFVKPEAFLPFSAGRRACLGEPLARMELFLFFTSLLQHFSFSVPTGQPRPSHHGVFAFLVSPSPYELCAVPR

[25] = target: T2, Cytochrome P450 3A4 (Homo sapiens, UniProt P08684); assay: Inhibition of CYP3A4 (unknown origin) using midazolam as substrate
T2 sequence (P08684 whole entry): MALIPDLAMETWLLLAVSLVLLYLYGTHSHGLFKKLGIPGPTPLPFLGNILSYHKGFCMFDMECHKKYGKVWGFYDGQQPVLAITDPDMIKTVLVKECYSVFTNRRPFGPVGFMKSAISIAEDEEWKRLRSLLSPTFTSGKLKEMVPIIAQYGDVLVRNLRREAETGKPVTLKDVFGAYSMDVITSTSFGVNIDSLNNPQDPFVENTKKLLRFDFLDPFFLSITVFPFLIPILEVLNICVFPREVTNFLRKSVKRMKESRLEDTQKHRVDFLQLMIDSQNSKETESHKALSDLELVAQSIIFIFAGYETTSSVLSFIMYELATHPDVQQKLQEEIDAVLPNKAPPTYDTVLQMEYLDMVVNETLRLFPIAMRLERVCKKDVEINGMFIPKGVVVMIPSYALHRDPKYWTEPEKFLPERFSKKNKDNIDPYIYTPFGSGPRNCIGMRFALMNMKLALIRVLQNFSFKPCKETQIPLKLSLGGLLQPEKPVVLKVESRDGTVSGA

[26] = target: T2, Cytochrome P450 3A4; assay: Inhibition of CYP3A4 (unknown origin) using testosterone as substrate
[27] = test system: Calu-6; assay: Antitumor activity against human Calu-6 cells xenografted in nude mouse assessed as tumor growth inhibition at 30 mg/kg,IT QD for 12 days relative to control; assay type: functional; details: Calu-6, 288 h, time 12 day, read-out: TGI
[28] = target: Voltage-gated inwardly rectifying potassium channel KCNH2 (Homo sapiens, UniProt Q12809)
Sequence of Voltage-gated inwardly rectifying potassium channel KCNH2 (Q12809 whole entry): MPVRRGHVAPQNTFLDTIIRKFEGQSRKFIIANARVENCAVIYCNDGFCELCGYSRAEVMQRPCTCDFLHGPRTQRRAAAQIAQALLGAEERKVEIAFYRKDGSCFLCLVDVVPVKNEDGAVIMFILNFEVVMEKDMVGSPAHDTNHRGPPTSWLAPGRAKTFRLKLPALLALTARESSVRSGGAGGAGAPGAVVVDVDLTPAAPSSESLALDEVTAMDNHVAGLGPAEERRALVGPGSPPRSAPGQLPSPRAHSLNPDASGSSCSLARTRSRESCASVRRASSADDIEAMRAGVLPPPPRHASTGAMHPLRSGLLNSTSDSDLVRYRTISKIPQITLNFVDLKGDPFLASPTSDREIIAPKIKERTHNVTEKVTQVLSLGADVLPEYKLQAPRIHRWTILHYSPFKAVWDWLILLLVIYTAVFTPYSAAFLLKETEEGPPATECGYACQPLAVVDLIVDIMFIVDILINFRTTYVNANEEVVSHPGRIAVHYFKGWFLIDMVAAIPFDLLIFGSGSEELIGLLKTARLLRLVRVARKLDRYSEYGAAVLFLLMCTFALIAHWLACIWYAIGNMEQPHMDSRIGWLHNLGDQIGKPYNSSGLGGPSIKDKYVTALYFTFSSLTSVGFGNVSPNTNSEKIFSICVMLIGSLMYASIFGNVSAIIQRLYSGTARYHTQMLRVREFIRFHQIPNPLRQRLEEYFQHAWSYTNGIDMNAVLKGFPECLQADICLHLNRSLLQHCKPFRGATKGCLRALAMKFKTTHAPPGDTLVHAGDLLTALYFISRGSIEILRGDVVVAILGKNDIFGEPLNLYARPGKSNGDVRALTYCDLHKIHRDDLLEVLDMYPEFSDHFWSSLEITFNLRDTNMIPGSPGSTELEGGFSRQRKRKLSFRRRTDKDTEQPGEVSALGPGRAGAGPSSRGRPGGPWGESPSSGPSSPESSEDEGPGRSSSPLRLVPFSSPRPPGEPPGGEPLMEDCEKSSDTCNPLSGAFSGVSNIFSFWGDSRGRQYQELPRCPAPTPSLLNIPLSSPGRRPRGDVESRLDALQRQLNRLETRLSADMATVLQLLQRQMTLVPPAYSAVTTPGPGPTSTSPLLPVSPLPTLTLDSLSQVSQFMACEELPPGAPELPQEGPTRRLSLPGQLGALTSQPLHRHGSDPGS

[29] = Half life in Sprague-Dawley rat plasma at 1 mg/kg, iv by LC-MS/MS analysis; assay type: ADME, organism-based; details: Sprague-Dawley, plasma
[30] = Clearance in Sprague-Dawley rat plasma at 1 mg/kg, iv by LC-MS/MS analysis; assay type: ADME, organism-based
[31] = Cmax in Sprague-Dawley rat plasma at 20 mg/kg, IG by LC-MS/MS analysis; assay type: ADME, organism-based; design: route […], dose 20 mg/kg; details: po
[32] = AUC (0 to t) in Sprague-Dawley rat plasma at 20 mg/kg, IG by LC-MS/MS analysis; assay type: ADME, organism-based; design: dose 20 mg/kg; details: po
[33] = test system: Calu-6; assay: Antitumor activity against human Calu-6 cells xenografted in nude mouse assessed as tumor growth inhibition at 5 to 30 mg/kg,IT BID for 14 days relative to control; assay type: functional, organism-based; details: dose 5-30 mg/kg, time 14.0 day
[34] = Toxicity in nude mouse assessed as reduction in body weight measured at 5 to 30 mg/kg,IT BID for 14 days; assay type: organism-based; details: in vivo, other, 336 h, dose 5-30 mg/kg, time 14 day
[35] = target: T3, Eukaryotic translation initiation factor 2-alpha kinase 3 (Homo sapiens) (UniProt Q9NZJ5); assay: Inhibition of human His-tagged PERK by TR-FRET assay
T3 sequence (whole entry): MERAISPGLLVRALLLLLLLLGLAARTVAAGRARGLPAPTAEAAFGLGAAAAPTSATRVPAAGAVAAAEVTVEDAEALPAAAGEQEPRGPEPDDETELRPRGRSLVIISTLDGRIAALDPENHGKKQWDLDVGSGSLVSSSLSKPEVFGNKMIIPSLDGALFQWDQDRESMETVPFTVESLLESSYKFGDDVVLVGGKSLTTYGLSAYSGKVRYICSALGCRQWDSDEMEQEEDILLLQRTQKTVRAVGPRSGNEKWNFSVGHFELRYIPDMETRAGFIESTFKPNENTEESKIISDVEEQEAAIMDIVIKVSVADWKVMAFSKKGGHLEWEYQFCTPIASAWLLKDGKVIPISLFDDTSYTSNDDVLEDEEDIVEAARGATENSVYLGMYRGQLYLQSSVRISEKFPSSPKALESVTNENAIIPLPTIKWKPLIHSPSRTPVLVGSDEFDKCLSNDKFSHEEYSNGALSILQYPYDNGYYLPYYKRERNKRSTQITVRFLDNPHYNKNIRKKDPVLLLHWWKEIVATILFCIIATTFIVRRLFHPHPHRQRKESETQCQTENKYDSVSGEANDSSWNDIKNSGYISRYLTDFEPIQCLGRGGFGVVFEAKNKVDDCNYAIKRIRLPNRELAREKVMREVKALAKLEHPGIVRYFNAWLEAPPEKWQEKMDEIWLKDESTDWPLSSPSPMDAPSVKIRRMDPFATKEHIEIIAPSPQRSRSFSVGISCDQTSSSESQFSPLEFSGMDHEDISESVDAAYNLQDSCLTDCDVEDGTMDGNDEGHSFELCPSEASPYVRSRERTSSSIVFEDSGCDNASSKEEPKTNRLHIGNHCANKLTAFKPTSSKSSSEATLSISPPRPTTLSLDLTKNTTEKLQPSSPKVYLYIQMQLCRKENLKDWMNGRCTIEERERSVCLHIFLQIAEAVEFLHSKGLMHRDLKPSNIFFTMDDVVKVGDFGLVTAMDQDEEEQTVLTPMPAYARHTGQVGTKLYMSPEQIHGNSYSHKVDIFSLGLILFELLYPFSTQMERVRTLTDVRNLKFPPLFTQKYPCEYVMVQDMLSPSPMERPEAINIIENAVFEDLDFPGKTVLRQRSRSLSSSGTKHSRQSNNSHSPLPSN

[36] = Cmax in C57 mouse at 2 mg/kg, IG; assay type: ADME, organism-based; design: route […], dose 2 mg/kg; details: in vivo, po
[37] = Half life in C57 mouse at 1 mg/kg, iv; assay type: ADME, organism-based; details: in vivo
[38] = Clearance in C57 mouse at 1 mg/kg, iv; assay type: ADME, organism-based; details: in vivo
[39] = AUC (0 to t) in C57 mouse at 2 mg/kg, IG; assay type: ADME, organism-based; design: dose 2 mg/kg; details: in vivo, po
[40] = Oral bioavailability in C57 mouse; assay type: ADME, organism-based; details: in vivo
[41] = Cmax in Sprague-Dawley rat assessed as parent compound at 24 mg/kg, IG by LC-MS/MS analysis; assay type: ADME, organism-based, Plasma; design: route […], dose 24 mg/kg; details: in vivo, po
[42] = Cmax in Sprague-Dawley rat plasma assessed as parent compound at 121 mg/kg, IG by LC-MS/MS analysis; assay type: ADME, organism-based; design: route […], dose 121 mg/kg; details: in vivo, po
[43] = AUC (0-t) in Sprague-Dawley rat plasma assessed as parent compound at 121 mg/kg, IG by LC-MS/MS analysis; assay type: ADME, organism-based; design: dose 121 mg/kg; details: in vivo, po

pIC50 [1]: 8.29 | solubility [3]: 0.9 µM (≈ 0.46 µg/mL) | Cmax [4]: 47.3 ng/mL | AUCt ([5]; in vivo): 3.12 ng·h/mL | F [6]: 18.7% | pIC50 [7]: 7.92 | pIC50 [8]: 7.96 | half-life [12]: 2.32 h | half-life [13]: > 2.32 h | half-life [14]: 0.748 h | fraction unbound [15]: 0.004 | fraction unbound [16]: 0.012 | fraction unbound [17]: 0.009 | Papp A→B [18]: 15.7 ×10⁻⁶ cm/s | Papp B→A [19]: 39.8 ×10⁻⁶ cm/s | efflux ratio [20]: 2.53 | pIC50 [21]: < 4.52 | pIC50 [22]: 4.99 | pIC50 [23]: < 4.52 | pIC50 [24]: < 4.52 | pIC50 [25]: < 4.52 | pIC50 [26]: 4.88
SMILES: Cc1ccc(NC(=O)c2ccnc(C(F)(F)F)c2)cc1-c1ccc2c(c1)OC1(CCOCC1)CC(=O)N2
GI50 [2]: 1700 nM | GI50 [9]: 150 nM | GI50 [10]: 350 nM | GI50 [11]: 230 nM | inhibition in vivo at 30 mg/kg [27]: 41% | pIC50 [28]: 5.52

pIC50 [1]: 8.80 | Cmax [4]: 956 ng/mL | half-life [29]: 1.6 h | clearance [30]: 7.2 mL/min/kg | AUC(0-t) ([5]; Sprague-Dawley, plasma): 4700 ng·h/mL | bioavailability ([6]; Sprague-Dawley): 101% | pIC50 [7]: 8.00 | pIC50 [8]: 8.24 | half-life [12]: 1.77 h | half-life [13]: > 2.32 h | half-life [14]: 1.24 h | fraction unbound [15]: 0.006 | fraction unbound [16]: 0.018 | fraction unbound [17]: 0.06 | Cmax [31]: 2810 ng/mL | AUC(0-t) [32]: 21800 ng·h/mL | inhibition [35]: Active | Cmax [36]: 953 ng/mL | half-life [37]: 3.6 h | clearance [38]: 6.8 mL/min/kg | AUC(0-t) [39]: 5410 ng·h/mL | bioavailability [40]: 112%
SMILES: Cc1ccc(NC(=O)c2cc(C(F)(F)F)cnn2)cc1-c1ccc2c(c1)OC1(CCOCC1)CC(=O)N2
GI50 [2]: 1400 nM | GI50 [9]: 170 nM | GI50 [10]: 400 nM | GI50 [11]: 320 nM | TGI [33]: Dose-Dependent Effect | Activity [34]: Non-Toxic

Cmax [41]: 2848 ng/mL | Cmax [42]: 10740 ng/mL | AUCt [43]: 132780 ng·h/mL
SMILES: Cc1ccc(NC(=O)c2cc(C(F)(F)F)cnn2)cc1-c1ccc2c(c1)OC1(CCOCC1)CC(=O)N2COP(=O)(O)O
